The source made the active and inactive calls.
What was measured:
[1] = target: Peroxisome proliferator-activated receptor gamma/Nuclear receptor coactivator 1 (Homo sapiens, UniProt P37231); experiment: (§1) TR-FRET dose response biochemical High Throughput Screening assay for agonists of the steroid receptor coactivator 1 (SRC-1) recruitment by the peroxisome proliferator-activated receptor gamma (PPAR gamma): non-selective agonists. [Related pubchem assays (depositor defined):AID1300, AID1808, AID504735, AID631]; assay type: protein assay
[2] = target: Peroxisome proliferator-activated receptor gamma/Nuclear receptor coactivator 3 (Homo sapiens, UniProt P37231); experiment: as §1, with “3 (SRC-3)” for “1 (SRC-1)”, “assays: 1301 (Confirmation screen.), 1048 (Primary screen.)]” for “assays (depositor defined):AID1300, AID1808, AID504735, AID631]”; assay type: functional
[3] = target: Peroxisome proliferator-activated receptor gamma/Nuclear receptor coactivator 2 (Homo sapiens, UniProt P37231); experiment: TR-FRET dose response biochemical High Throughput Screening assay for agonists of the steroid receptor coactivator 2 (SRC-2) recruitment by the peroxisome proliferator-activated receptor gamma (PPAR gamma): non-selective agonists. [Related pubchem assays: 1297, 1032 ]; assay type: functional
[4] = target: T1, Heat shock factor protein 1 (Mus musculus, UniProt P38532); experiment: decrease of HSF1-responsive luciferase luminescence – cell-based, NIH3T3, dose retest, confirmation (AID 2382); assay type: functional;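 note: NIH3T3 fibroblasts with HSF1-driven luciferase reporter stressed by proteasome inhibitor MG132; luminescence from HSF1-driven luciferase expression after 8 hours of MG132 stress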
T1 sequence (P38532 whole entry): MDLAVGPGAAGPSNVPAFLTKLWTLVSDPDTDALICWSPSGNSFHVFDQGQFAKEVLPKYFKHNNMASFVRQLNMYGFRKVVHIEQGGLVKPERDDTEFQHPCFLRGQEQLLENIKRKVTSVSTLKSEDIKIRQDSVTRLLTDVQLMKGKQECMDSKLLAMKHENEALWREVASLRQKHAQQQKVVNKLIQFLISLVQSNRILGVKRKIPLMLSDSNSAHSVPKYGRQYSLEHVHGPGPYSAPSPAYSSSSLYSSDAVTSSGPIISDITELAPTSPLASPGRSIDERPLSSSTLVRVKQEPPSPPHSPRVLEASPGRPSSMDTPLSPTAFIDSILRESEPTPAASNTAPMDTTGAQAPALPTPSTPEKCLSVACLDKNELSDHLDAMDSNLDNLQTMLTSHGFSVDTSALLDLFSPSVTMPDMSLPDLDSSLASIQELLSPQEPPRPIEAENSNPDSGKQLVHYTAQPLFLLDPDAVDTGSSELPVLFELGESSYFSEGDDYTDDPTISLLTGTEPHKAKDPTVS

Nonstructural protein 1 = Nonstructural protein 1 (Influenza A virus, UniProt Q194T2); assay type: functional, Influenza A virus (A/California/07/2009(H1N1))
[5] = target: Luciferin 4-monooxygenase (Photinus pyralis, UniProt P08659); experiment: Counter Screen for Luciferase-based Assay Positives. [Related pubchem assays: 620, 618, 411 ]
HEK293 = experiment: cells; assay type: functional, cell-based; settings: Homo sapiens
[6] = target: T2, Nuclear receptor subfamily 0 group B member 1 (Homo sapiens, UniProt P51843); experiment: Luminescence-based cell-based high throughput dose response assay for inhibitors of the orphan nuclear receptor subfamily 0, group B, member 1 (DAX1; NR0B1). [Related pubchem assays (depositor defined):AID504766, AID504790]; assay type: functional
T2 sequence (P51843 whole entry): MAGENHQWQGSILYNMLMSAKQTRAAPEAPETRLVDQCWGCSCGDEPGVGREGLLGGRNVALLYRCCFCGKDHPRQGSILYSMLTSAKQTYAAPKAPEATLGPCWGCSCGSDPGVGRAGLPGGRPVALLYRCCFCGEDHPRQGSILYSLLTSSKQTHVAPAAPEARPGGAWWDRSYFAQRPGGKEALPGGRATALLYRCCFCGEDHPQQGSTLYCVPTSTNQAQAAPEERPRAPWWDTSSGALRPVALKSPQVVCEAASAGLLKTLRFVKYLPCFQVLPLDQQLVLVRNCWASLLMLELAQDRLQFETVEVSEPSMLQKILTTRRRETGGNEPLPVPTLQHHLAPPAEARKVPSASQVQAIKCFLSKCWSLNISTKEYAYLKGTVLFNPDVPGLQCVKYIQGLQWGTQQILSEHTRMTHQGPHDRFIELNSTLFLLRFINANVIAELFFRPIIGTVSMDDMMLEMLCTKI

HT-1080 = experiment: HT1080 cell viability loss – fluorescence readout (AID 620); assay type: functional, cell-based; settings: Homo sapiens
CHO = CHO cell viability loss, potency – luminescence, cytotoxicity control for TLR9-MyD88 binding inhibitor project, dose response (AID 588339); assay type: functional, cell-based, hamster; settings: Cricetulus griseus;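 note: CHO cells stably coexpressing TLR9 and MyD88 fusions from primary screen; compound exposure lasted 48 hours before viability readout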
[7] = target: Protein-tyrosine kinase 2-beta (Homo sapiens, UniProt Q14289);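 note: potency of inhibitors of PYK2 kinase phosphorylation of poly-GT substrate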
[8] = target: Induced myeloid leukemia cell differentiation protein Mcl-1 (Homo sapiens, UniProt Q07820); assay type: functional
[9] = target: T3, Corticotropin-releasing factor receptor 2/Corticotropin-releasing factor-binding protein (Homo sapiens, UniProt P24387+Q13324); experiment: Dose Response confirmation of uHTS hits for small molecule antagonists of the CRF-binding protein and CRF-R2 receptor complex.; assay type: functional; settings: read-out: IC50_Mean
T3 sequence (Q13324 whole entry): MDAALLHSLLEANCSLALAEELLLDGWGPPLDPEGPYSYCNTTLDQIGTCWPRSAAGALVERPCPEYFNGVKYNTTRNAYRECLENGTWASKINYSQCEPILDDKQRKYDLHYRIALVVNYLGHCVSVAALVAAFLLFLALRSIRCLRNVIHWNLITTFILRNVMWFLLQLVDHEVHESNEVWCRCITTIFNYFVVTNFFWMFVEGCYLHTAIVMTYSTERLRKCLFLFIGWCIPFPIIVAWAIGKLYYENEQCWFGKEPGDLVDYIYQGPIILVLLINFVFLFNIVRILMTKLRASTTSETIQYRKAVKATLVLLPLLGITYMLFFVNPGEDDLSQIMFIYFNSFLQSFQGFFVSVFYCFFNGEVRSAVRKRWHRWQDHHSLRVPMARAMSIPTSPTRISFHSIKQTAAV
T3 sequence (P24387 whole entry): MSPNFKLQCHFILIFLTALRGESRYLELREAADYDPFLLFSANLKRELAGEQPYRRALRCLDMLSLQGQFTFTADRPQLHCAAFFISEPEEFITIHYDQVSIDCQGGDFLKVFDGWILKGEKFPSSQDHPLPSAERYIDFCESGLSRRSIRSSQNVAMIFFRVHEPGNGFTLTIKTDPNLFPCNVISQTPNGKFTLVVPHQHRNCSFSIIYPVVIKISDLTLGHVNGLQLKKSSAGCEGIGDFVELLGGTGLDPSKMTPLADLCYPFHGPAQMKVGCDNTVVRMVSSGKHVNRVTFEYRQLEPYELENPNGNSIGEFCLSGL

[10] = blockers of CRF-binding protein–CRF-R2 complex – cell-based, uHTS hits, 384-well, dose response (AID 651639); assay type: functional, Homo sapiens; settings: read-out: IC50_Mean
Escherichia coli = experiment: microbe, parasite or virus in culture
[11] = target: T3, Corticotropin-releasing factor receptor 2/Corticotropin-releasing factor-binding protein; experiment: activators of CRF receptor 2 with binding protein – uHTS hits, confirmation (AID 602473); assay type: functional; settings: read-out: EC50_Mean

Chain of Peroxisome proliferator-activated receptor gamma/Nuclear receptor coactivator 2 (P37231 whole entry): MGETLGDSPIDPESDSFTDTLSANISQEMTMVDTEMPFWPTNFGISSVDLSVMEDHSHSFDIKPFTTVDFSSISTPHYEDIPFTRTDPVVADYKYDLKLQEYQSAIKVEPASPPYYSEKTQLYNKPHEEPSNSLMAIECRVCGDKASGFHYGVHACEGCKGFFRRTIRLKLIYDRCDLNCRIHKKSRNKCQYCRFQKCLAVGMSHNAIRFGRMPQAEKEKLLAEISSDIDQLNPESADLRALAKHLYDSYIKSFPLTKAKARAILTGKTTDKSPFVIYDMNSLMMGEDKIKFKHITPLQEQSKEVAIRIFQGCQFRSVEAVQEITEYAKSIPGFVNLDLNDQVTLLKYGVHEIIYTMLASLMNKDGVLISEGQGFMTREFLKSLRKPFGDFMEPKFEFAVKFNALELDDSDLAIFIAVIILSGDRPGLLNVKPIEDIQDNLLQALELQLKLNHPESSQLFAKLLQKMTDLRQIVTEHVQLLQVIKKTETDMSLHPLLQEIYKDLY
Chain of Peroxisome proliferator-activated receptor gamma/Nuclear receptor coactivator 2 (Q15596 whole entry, further chain): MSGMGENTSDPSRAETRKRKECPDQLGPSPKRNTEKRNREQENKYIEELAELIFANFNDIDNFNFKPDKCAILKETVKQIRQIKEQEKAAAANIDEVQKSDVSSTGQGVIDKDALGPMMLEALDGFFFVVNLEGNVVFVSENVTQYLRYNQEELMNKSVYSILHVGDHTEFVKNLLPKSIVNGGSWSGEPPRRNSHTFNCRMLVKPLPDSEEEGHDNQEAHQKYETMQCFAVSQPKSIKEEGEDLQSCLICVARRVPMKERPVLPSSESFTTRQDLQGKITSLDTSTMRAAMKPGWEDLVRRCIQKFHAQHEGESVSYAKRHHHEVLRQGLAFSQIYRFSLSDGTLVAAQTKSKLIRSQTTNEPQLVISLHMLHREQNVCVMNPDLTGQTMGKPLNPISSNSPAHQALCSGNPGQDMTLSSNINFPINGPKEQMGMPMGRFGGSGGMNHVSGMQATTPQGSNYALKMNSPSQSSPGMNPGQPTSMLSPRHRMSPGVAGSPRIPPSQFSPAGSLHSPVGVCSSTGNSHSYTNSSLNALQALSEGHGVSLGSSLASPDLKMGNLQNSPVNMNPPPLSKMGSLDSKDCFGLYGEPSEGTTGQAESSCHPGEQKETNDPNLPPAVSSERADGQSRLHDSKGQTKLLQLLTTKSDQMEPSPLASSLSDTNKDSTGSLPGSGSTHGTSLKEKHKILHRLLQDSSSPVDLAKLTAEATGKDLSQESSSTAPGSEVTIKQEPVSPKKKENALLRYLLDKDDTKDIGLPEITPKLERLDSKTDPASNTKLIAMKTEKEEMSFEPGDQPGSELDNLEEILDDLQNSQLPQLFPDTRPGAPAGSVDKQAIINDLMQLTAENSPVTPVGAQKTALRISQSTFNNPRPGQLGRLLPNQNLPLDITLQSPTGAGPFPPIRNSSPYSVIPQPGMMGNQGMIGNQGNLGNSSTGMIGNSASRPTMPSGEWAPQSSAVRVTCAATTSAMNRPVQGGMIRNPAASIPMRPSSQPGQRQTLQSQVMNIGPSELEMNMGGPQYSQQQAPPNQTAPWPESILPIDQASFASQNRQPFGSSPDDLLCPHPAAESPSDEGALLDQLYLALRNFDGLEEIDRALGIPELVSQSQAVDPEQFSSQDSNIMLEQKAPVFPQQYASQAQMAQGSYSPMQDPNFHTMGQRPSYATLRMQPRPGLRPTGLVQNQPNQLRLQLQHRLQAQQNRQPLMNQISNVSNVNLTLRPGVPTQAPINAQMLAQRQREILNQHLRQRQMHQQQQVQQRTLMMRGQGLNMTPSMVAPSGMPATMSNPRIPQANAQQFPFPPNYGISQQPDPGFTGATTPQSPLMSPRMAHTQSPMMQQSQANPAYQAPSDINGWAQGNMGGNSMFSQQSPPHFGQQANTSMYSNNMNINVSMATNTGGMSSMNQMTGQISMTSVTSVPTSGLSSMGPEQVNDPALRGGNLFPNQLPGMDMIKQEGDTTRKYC
Chain of Peroxisome proliferator-activated receptor gamma/Nuclear receptor coactivator 1 (P37231 whole entry): as the sequence (P37231 whole entry) above
Chain of Peroxisome proliferator-activated receptor gamma/Nuclear receptor coactivator 1 (Q15788 whole entry, further chain): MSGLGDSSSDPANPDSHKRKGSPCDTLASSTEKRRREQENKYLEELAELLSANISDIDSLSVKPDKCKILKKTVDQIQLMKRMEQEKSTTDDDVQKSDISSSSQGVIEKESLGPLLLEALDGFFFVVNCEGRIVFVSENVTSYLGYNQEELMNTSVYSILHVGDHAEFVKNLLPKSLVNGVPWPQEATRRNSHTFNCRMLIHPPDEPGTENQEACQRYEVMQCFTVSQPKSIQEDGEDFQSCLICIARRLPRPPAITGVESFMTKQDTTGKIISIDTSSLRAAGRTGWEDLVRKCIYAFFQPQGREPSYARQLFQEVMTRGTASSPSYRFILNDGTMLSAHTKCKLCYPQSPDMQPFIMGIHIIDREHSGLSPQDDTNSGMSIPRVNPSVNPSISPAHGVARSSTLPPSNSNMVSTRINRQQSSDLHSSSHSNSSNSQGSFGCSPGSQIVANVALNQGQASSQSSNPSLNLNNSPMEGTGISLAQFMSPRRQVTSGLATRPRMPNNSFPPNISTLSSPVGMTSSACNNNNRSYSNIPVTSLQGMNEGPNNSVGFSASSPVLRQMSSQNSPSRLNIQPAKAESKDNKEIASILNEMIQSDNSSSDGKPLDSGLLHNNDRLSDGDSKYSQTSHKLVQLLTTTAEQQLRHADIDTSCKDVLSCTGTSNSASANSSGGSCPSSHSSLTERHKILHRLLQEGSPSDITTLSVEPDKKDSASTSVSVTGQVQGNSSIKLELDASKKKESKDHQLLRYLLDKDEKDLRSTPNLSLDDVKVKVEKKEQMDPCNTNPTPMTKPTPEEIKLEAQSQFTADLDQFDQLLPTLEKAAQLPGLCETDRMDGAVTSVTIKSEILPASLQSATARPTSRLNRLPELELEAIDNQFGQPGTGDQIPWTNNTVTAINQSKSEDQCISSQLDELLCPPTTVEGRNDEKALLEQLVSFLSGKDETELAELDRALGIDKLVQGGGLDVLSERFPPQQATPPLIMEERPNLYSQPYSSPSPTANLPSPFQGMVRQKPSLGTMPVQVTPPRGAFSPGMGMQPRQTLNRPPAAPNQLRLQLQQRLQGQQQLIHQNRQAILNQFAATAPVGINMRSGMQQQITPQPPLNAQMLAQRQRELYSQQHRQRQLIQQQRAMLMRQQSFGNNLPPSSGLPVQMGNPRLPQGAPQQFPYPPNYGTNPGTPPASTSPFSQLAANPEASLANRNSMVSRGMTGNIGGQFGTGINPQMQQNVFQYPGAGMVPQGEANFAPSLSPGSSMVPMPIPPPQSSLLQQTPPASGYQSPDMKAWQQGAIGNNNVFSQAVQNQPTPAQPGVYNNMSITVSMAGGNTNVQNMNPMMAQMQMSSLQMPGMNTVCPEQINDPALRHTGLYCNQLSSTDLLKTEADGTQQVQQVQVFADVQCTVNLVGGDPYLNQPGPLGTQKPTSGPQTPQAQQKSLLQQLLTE
Chain of Nonstructural protein 1 (Q194T2 whole entry): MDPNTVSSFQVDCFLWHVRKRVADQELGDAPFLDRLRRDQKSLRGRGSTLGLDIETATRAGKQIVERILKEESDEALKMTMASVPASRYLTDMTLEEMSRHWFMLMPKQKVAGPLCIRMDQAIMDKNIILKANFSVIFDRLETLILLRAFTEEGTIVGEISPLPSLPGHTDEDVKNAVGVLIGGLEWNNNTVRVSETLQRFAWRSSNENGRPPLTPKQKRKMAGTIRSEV
Chain of Luciferin 4-monooxygenase (P08659 whole entry): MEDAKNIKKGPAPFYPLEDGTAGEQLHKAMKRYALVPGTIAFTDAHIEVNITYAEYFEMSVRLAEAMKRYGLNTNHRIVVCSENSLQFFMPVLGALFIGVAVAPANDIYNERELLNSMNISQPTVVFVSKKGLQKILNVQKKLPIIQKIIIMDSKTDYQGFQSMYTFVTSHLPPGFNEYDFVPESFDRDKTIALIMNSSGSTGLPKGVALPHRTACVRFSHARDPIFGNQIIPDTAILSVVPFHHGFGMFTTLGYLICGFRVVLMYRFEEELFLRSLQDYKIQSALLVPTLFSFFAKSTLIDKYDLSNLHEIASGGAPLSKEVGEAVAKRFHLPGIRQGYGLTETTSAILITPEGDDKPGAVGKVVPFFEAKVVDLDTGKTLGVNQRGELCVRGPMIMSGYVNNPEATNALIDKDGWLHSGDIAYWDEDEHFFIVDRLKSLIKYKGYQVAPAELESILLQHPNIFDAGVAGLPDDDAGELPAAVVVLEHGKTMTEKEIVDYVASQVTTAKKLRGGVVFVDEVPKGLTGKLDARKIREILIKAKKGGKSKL
Chain of Induced myeloid leukemia cell differentiation protein Mcl-1 (Q07820 whole entry): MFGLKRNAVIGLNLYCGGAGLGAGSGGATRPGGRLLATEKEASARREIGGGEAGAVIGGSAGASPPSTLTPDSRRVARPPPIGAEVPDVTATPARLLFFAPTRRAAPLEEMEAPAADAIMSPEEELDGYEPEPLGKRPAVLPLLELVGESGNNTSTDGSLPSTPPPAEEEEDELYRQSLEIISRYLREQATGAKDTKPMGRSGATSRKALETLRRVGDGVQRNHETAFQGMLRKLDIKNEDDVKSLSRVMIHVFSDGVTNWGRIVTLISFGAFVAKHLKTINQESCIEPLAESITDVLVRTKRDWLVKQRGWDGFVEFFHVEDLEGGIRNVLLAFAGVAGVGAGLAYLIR

SMILES	EC50 [1]	EC50 [2]	EC50 [3]	IC50 (HEK293)	IC50 [6]	other results
N#Cc1cc(C(=O)c2cc(Br)ccc2O)cn(Cc2ccccc2)c1=O	> 79.4 µM (inactive)	> 79.4 µM (not active)	> 79.4 µM (not active)	–	–	–
Cn1c(S)nnc1-c1sc2cc(C(F)(F)F)cnc2c1-c1cccnc1	4.86 µM (active)	20.2 µM (not active)	7.93 µM (active)	–	–	EC50 [4]: > 195 µM (not active)
COc1ccc(C2CC(c3ccc(Br)cc3)=NN2C(S)=Nc2ccccc2)cc1 (configuration not stated)	31.8 µM (inactive)	> 79.4 µM (not active)	30.2 µM (not active)	–	–	–
Clc1ccc(-c2nnc(N3CCCC3)nn2)cc1	–	–	–	> 67.5 µM (inactive)	> 67.5 µM (inactive)	IC50 (Nonstructural protein 1): > 100 µM (active); EC50 [5]: 1.39 µM (active); EC50 (HT-1080): > 50 µM (not active)
O=C1c2ccccc2C(=O)N1CCc1c[nH]c2ccccc12	–	–	–	> 67.5 µM (inactive)	> 67.5 µM (inactive)	–
Nc1c(O)nc(O)nc1C(=O)OCC(=O)NCc1ccccc1	–	–	–	> 67.5 µM (inactive)	> 67.5 µM (inactive)	–
COc1ccc(C(=O)c2sc3nc(-c4ccccc4)ccc3c2N)cc1OC	–	–	–	–	–	IC50 (CHO): 27.3 µM (inactive); IC50 [7]: 12 µM (not active); IC50 [8]: 1.27 µM (not active)
O=C(NC(Cc1ccccc1)c1nc2ccccc2[nH]1)c1ccc(Cl)c([N+](=O)[O-])c1 (configuration not stated)	–	–	–	–	–	IC50 [9]: 11.6 µM (active); IC50 [10]: 4.96 µM (active); AC50 (Escherichia coli): 25 µM (active); EC50 [11]: > 53 µM (inactive)
COC(C(=O)Nc1ccnn1C1CCN(Cc2ccc(C)o2)CC1)c1ccccc1 (configuration not stated)	–	–	–	–	–	AC50 (Escherichia coli): 74.5 µM (active)
